Laboratory results reported in patent US20050261162A1, “Pharmaceutical composition for preventing and treating cancer and treating an inflammation” (priority 2001, published 2005).

What was measured:
HL-60 cells [1] = assay: Apoptosis morphology in HL-60 cells (Hoechst 33258 staining, fluorescence microscopy); assay type: cell-based, Human; conditions: xanthorrhizol 40 μM, 24 hr
Description: Human promyelocytic leukemia (HL-60) cells were maintained at 37° C. in a humidified atmosphere of 95% air and 5% CO2 in RPMI 1640 supplemented with 10% (v/v) heat-inactivated fetal bovine serum (FBS). HL-60 cells were cultured in 6-well plate in RPMI 1640 medium containing 10% FBS in the absence or presence of the methanolic extract of Curcuma xanthorrhiza (15 μg/ml) and xanthorrhizol (40 μM) and centrifuged after 24 hr. 4% neutral buffered formaline was added to the cell and the mixture was transferred to slides, which were left at room temperature for dryness. The fixed cells were washed in PBS, air-dried and stained with DNA-specific fluorochrome Hoechest 33258 for 1 min. The adhered cells were washed with PBS, air dried, and mounted with 50% glycerol. The slides were observed by fluorescence microscopy.

iNOS = molecular target: T1, iNOS (Mus musculus, UniProt P29477); assay: Inhibition of LPS-induced iNOS activity (nitric oxide production) in RAW264.7 macrophage cells; assay type: cell-based; conditions: LPS 1 μg/ml, 20 hr
T1 construct: endogenous in cells; host or cells: RAW264.7 macrophage cells, LPS-stimulated
T1 sequence (P29477 1-1144): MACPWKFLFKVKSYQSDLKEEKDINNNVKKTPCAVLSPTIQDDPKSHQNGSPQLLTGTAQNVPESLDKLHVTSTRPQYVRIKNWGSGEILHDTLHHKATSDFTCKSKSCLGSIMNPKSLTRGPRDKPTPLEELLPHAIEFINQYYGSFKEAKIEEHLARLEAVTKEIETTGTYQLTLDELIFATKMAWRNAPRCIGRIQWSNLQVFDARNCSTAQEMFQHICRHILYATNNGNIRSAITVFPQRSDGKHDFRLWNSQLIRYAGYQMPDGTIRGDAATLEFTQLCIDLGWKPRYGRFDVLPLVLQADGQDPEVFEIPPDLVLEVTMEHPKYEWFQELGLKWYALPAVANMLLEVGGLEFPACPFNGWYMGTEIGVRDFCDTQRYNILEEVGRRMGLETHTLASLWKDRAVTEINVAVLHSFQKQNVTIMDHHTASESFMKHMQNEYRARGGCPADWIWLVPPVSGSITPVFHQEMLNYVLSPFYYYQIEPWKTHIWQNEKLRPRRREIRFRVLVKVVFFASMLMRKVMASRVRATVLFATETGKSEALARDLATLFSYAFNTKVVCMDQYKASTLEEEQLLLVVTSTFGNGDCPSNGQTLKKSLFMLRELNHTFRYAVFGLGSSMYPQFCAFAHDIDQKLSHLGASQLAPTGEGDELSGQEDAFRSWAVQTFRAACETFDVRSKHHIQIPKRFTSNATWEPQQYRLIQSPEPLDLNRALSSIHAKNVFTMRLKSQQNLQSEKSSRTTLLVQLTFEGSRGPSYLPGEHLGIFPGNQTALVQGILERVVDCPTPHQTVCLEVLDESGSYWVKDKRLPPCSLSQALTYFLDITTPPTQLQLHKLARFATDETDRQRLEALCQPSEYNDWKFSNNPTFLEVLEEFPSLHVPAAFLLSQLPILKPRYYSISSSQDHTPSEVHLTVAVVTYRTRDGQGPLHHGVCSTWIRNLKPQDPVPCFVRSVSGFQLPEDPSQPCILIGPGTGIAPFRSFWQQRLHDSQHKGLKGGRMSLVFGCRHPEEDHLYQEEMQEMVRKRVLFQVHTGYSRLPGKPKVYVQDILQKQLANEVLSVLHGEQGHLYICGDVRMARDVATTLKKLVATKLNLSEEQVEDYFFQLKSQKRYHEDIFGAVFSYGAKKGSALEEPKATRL
Description: The effect of xanthorrhizol on iNOS activity induced by LPS was measured. RAW264.7 macrophage cells were maintained in DMEM supplemented with penicillin-streptomycin and 10% FBS at 37° C., in 5% CO2 of humidified air. The cells in 10% FBS-DMEM without phenol red media were plated in 24-well plates (8×10^5/ml), and then incubated for 4 hr. The cells were replaced with new media, and incubated in the medium with 1 μg/ml of LPS and xanthorrhizol. After an additional 20 hr incubation, the media were removed and analyzed for nitrite accumulation as an indicator of NO production by the Griess reaction. 150 μl of Griess reagent were added to 100 μl of each supernatant from LPS and/or xanthorrhizol treated cells in triplicate. The plates were incubated for 10 min, and were read at 570 nm against a standard curve of NaNO2. The percentage inhibition was expressed as [1−(NO level of sample/NO level of vehicle treated−control)]×100.

procaspase-3 = assay: Activation of procaspase-3 in HL-60 cells (western blotting); assay type: cell-based, Human; conditions: 40 μM
Description: To investigate whether xanthorrhizol also induces the activation of procaspase-3, HL-60 cells were treated with 0, 10, 40, 80 μM of xanthorrhizol for 24 hr and was also treated with 80 μM of xanthorrhizol for 0, 2, 4, 6, 9 and 12 hr. The cells were harvested, suspended in 400 μl of lysis buffer described in embodiment 4, incubated 4° C. for 40 min and centrifuged. The supernatant was electrophoresized on the 12% SDS-polyacrylamide gel. Blot was transferred from SDS-polyacrylamide gel to PVDF membrane, blocked with 5% fat-free dry milk-PBST buffer for 2 hr at room temperature and then washed in PBST buffer. Membrane was incubated for 2 hr at room temperature with mouse procaspase-3 monoclonal antibody (Transduction Laboratories, Lexington, Ky., USA). Blot was rinsed with PBST, incubated with mouse horseradish peroxidase-conjugated secondary antibody and again washed 3 times in PBST buffer for 5 min. Transferred protein was visualized with an ECL detection kit.

HL-60 cells [2] = assay: DNA fragmentation in HL-60 cells (agarose gel electrophoresis); assay type: cell-based, Human; conditions: 80 μM, 24 hr
Description: HL-60 cells were cultured in 10% FBS-RPMI 1640 medium of 100 mm Petri dish for 2 days. The cells were treated with 0,10, 40, 80 μM of xanthorrhizol to investigate the effect of xanthorrhizol on DNA fragmentation, a biochemical marker of apoptosis. After 24 hr, the cells were collected, incubated with 500 μl of lysis buffer (1 % Triton-X 100, 50 mM Tris-HCl pH 7.4, 20 mM EDTA) for 1 hr on ice, and centrifuged. To the supernatant was added 100 μl of 1% SDS, 10 μl f TE/RNase(10 mg/ml), 50 µl of proteinase K (1 mg/ml) and the mixture was incubated at 37° C. at least for 4 hr. DNA was extracted with phenol-chloroform-isoamylalcohol (25:24:1, v/v) and precipitated at −70° C. for 1 hr after addition of 2.5 volumes of cold ethanol. DNA fragments were resolved by 1.5% agarose gel electrophoresis and visualized by staining with ethidium bromide.

CC(C)=CCC[C@@H](C)c1ccc(C)c(O)c1 [xanthorrhizol]
morphological characteristics of apoptosis (HL-60 cells [1]): distinct chromatin condensation and nuclear fragmentation | IC50 (iNOS; read-out: IC50, LPS-induced iNOS activity (NO) (converted)): 4.63 µM | inhibition at 10 µg/mL (iNOS; RAW264.7, 10 μg/ml, read-out: percentage inhibition of LPS-induced nitric oxide production (iNOS activity)): ≥ 99% | activation of procaspase-3 (procaspase-3): activated the procaspase-3 to caspase-3 | DNA fragmentation (HL-60 cells [2]): induced
